Reference: article PMC6698751 (2019)

What was measured:
[1] = test system: glutamine-II riboswitch (RNA used for crystallization) (RNA, riboswitch, 5-bromocytidine at 8 and 9) CGUUCACCCUUCGGGGCGCAUGAAAUGGGAGUAGGGAACGGGAUUCUCAU; assay: X-ray crystallography, 2.3 Å; settings: Mg2+ in PDB record; strand-exchanged dimer; metal ion directly bound to glutamine carboxylate
[2] = test system: glutamine-II riboswitch (unmodified; RNA used for calorimetry) (RNA, riboswitch) CGUUCACCCUUCGGGGCGCAUGAAAUGGGAGUAGGGAACGGGAUUCUCAU; assay: isothermal titration calorimetry; settings: 100 mM K+, 10 mM Mg2+; 40 mM HEPES-K pH 7.0 (7.2 in Figure 4 legend), 298 K; mean of three titrations
[3] = test system: C1Z glutamine-II riboswitch (RNA, riboswitch, zebularine at 1 (C1Z)) CGUUCACCCUUCGGGGCGCAUGAAAUGGGAGUAGGGAACGGGAUUCUCAU; assay: isothermal titration calorimetry; settings: 100 mM K+, 10 mM Mg2+; 40 mM HEPES-K pH 7.0, 298 K; no measurable heat; 2-4 mM L-glutamine in syringe
[4] = test system: C39Z glutamine-II riboswitch (RNA, riboswitch, zebularine at 39 (C39Z)) CGUUCACCCUUCGGGGCGCAUGAAAUGGGAGUAGGGAACGGGAUUCUCAU; assay: isothermal titration calorimetry; settings: 100 mM K+, 10 mM Mg2+; 40 mM HEPES-K pH 7.0, 298 K; 2-4 mM L-glutamine in syringe
[5] = test system: G18 O2'H glutamine-II riboswitch (RNA, riboswitch, 2'-deoxy at 18 (2'-hydroxyl of G18 removed)) CGUUCACCCUUCGGGGCGCAUGAAAUGGGAGUAGGGAACGGGAUUCUCAU; assay: isothermal titration calorimetry; settings: 100 mM K+, 10 mM Mg2+; 40 mM HEPES-K pH 7.0, 298 K; 2-4 mM L-glutamine in syringe
[6] = test system: two-piece glutamine-II riboswitch (RNA, riboswitch) CGUUCACCCUUCGGGGCGCA/UGAAAUGGGAGUAGGGAACGGGAUUCUCAU; assay: isothermal titration calorimetry; settings: 100 mM K+, 10 mM Mg2+; equimolar mixture of two strands, 40 mM HEPES-K pH 7.0, 298 K

binding [1]: yes
Kd [2]: 190 ± 90 µM
binding [3]: no
binding [4]: no
binding [5]: no
binding [6]: yes
Compound: NC(=O)CC[C@H](N)C(=O)O
